For assay [1], the system named is KP1005 (CTX-M-14). As to the kind of experiment: Potentiation of aztreonam, strain KP1005. The assay is classed as cell-based.
For assay [2], the target named is KPC-2 (Klebsiella pneumoniae, UniProt Q9F663). As to the kind of experiment: Inhibition of nitrocefin cleavage by purified KPC-2. It counts as biochemical. The conditions noted are these: nitrocefin reporter substrate, purified enzyme; read-out: Ki (KPC-2, NCF). Put shortly:
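Purified enzyme was preincubated with a range of inhibitor concentrations in reaction buffer for 10 min at room temperature. Nitrocefin was then added and its cleavage followed at 490 nm every 10 sec for 10 min.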

Assay [3] concerns the target T1, CathepsinA (Homo sapiens, UniProt P10619).
T1 construct: purchased R&D Systems 1049-SE
T1 sequence (P10619 29-480): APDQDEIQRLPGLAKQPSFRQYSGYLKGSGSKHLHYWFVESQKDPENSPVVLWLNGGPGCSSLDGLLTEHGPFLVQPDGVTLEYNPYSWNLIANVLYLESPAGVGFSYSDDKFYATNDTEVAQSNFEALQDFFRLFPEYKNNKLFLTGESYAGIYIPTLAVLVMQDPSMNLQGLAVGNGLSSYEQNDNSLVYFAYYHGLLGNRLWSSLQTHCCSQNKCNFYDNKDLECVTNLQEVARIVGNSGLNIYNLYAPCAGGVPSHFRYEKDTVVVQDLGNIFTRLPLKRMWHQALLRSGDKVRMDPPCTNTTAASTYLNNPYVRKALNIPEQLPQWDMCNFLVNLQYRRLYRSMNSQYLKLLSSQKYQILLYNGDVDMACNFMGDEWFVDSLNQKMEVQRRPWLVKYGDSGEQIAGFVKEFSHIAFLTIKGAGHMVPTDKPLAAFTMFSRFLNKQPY
As to the kind of experiment: Serine protease inhibition: cathepsin A. The assay is classed as biochemical, mammalian. The conditions noted are these: Table 8B; read-out: IC50 CathepsinA. Put shortly: (§1)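 Inhibitors at several concentrations are preincubated with each protease for 10 min at 37° C before substrate is added, and reaction rates over 30 min are compared with an untreated control.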

Assay [4] concerns the target T2, CathepsinG (Homo sapiens, UniProt P08311).
T2 construct: purchased EMD Millipore 219373
T2 sequence (P08311 21-244): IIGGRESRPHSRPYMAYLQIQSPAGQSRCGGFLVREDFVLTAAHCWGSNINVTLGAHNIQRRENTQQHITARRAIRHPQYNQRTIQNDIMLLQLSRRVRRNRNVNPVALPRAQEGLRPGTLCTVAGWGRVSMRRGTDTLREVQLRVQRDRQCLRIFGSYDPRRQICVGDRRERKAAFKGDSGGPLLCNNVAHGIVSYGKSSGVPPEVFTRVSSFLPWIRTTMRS
As to the kind of experiment: Serine protease inhibition: cathepsin G. The conditions noted are these: Table 8B. The assay is classed as biochemical, mammalian. A digest of the protocol: as §1

Assay [5] deals with T3, Dipeptidyl peptidase 7 (DPP7) (Homo sapiens, UniProt Q9UHL4).
T3 construct: purchased R&D Systems 3438-SE
As to the kind of experiment: Serine protease inhibition: DPP7. It counts as biochemical, mammalian. The conditions noted are these: Table 8B; read-out: IC50 DPP7. The method, then: (§2) The effect of selected BLIs on the enzymatic activity of some common mammalian serine proteases was evaluated.
(§3) 50 μl of the diluted enzyme was mixed with 50 μl of inhibitor at various concentrations and 50 μl of corresponding buffer (Table 7). Reaction mixtures were incubated for 10 min at 37° C. Subsequently, 50 μl of corresponding substrate (Table 7) was added and absorbance or fluorescence was monitored for 30 min on SpectraMax M2 plate reader (Molecular Devices). 4-(2-Aminoethyl)benzenesulfonyl fluoride hydrochloride (AEBSF) and leupeptin were used as positive controls. Rates of reaction were calculated and presented relative to “no treatment” control.

Assay [6] addresses T4, Neutrophil elastase (Homo sapiens, UniProt P08246).
T4 construct: purchased Calbiochem 324681
T4 sequence (P08246 30-267): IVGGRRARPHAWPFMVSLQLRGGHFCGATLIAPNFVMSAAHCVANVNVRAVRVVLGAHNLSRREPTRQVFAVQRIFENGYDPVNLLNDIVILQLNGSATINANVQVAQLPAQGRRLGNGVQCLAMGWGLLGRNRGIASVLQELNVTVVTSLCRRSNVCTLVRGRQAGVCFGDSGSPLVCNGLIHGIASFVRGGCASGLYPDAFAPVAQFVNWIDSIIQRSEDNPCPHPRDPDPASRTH
As to the kind of experiment: Serine protease inhibition: neutrophil elastase. The assay is classed as biochemical, mammalian. The conditions noted are these: Table 8B; read-out: IC50 Neutrophil elastase. Put shortly:
as §1

The test system of assay [7] is EC1010 (CMY-6). The assay is classed as cell-based.
For assay [8], the target named is T5, Dipeptidyl peptidase 8 (DPP8) (Homo sapiens, UniProt Q6V1X1).
T5 construct: purchased BPS Bioscience 80080
As to the kind of experiment: Serine protease inhibition: DPP8. The conditions noted are these: Table 8B; read-out: IC50 DPP8. It counts as biochemical, mammalian. Put shortly: as §1

The test system of assay [9] is KP1009 (CTX-M-15). As to the kind of experiment: Potentiation of tigemonam, strain KP1009. The conditions noted are these: minimum BLI concentration inhibiting growth with 4 μg/mL tigemonam.
Assay [10] addresses T6, Urokinase (Homo sapiens, UniProt P00749).
T6 construct: purchased Calbiochem 672112
As to the kind of experiment: Serine protease inhibition: urokinase. The assay is classed as biochemical, mammalian. The following applies: Table 8A, class symbols; read-out: IC50 Urokinase. A digest of the protocol: as §1

For assay [11], the target named is T7, Trypsin (Bos taurus, UniProt P00760).
T7 construct: purchased Calbiochem 6502
T7 sequence (P00760 24-246): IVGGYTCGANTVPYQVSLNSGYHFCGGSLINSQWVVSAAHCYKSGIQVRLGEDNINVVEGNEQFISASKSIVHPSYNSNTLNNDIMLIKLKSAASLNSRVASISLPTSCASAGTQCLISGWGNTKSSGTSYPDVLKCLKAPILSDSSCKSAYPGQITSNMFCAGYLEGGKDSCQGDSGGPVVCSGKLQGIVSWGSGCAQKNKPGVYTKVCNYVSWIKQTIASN
As to the kind of experiment: Serine protease inhibition: trypsin. It counts as biochemical, mammalian. The following applies: Table 8A, class symbols; read-out: IC50 Trypsin. The method, then:
as §2, §3

Assay [12] concerns the target T8, Chymase (Homo sapiens, UniProt P23946).
T8 construct: purchased Enzo Lifescience BML-SE281
T8 sequence (P23946 22-247): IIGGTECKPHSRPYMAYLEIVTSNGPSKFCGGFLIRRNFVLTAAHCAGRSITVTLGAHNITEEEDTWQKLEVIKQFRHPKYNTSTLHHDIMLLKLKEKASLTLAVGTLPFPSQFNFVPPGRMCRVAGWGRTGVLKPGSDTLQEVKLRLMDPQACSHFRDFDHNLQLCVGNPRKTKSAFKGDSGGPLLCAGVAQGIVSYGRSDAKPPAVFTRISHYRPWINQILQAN
As to the kind of experiment: Serine protease inhibition: chymase. The assay is classed as biochemical, mammalian. The conditions noted are these: Table 8A, class symbols; read-out: IC50 Chymase. Put shortly: as §1

The test system of assay [13] is ec308 (SHV-5). As to the kind of experiment: Potentiation of aztreonam, strain ec308. The following applies: minimum BLI concentration inhibiting growth with 4 μg/mL aztreonam. The assay is classed as cell-based.
Assay [14] concerns PAM1154/KPC-2. As to the kind of experiment: Biapenem potentiation in PAM1154/KPC-2 (MexAB-OprM lacking). It counts as cell-based, Pseudomonas aeruginosa. The method, then: Efflux of BLIs from Pseudomonas aeruginosa by the MexAB-OprM efflux pump was also evaluated. […] Due to expression of KPC-2 both strains became resistant to biapenem. […] Potency of BLIs to potentiate biapenem in these strains was determined. […] The ratio of MPC64 values for each BLI in PAM1032/KPC-2 (efflux proficient) and PAM1154/KPC-2 (efflux deficient) was determined to generate the Efflux Index (EI).

Each structure is given as a SMILES string. Some results are limits rather than exact numbers.

Chain of KPC-2 (Q9F663 25-293, looked up, species assumed): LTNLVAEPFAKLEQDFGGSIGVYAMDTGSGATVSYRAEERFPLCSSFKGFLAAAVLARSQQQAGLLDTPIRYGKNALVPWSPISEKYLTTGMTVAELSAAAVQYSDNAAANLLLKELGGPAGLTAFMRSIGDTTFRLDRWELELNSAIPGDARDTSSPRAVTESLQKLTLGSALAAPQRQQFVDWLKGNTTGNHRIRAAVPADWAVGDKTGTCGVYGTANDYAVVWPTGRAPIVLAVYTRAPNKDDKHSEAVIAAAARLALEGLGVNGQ
T5 sequence (Q6V1X1 whole entry): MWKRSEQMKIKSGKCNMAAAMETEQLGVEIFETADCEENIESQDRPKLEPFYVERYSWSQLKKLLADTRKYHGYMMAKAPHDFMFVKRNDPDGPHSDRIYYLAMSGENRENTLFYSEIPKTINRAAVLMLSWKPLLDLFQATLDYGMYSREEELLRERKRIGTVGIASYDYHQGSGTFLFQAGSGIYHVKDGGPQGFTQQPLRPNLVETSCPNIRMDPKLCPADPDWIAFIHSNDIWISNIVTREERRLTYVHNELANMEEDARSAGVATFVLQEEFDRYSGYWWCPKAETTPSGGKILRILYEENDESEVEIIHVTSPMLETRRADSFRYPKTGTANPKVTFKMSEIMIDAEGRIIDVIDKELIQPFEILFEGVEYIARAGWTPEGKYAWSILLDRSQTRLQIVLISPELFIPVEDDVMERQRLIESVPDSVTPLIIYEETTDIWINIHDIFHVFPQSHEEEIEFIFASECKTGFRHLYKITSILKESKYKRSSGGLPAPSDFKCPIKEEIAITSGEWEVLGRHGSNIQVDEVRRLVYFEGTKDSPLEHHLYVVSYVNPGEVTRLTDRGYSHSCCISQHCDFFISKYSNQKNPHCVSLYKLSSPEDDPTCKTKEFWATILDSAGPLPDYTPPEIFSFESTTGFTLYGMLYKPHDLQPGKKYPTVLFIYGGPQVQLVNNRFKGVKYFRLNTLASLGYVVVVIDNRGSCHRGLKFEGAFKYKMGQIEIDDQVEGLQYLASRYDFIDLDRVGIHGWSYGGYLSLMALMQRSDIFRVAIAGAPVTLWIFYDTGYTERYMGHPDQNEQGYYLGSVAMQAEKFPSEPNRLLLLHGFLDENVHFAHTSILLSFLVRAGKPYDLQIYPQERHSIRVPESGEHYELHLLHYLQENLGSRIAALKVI

As for `[N-]=[N+]=NCC(=O)N[C@H]1Cc2cccc(C(=O)O)c2OB1O` [Compound 8, (R)-3-(2-azidoacetamido)-2-hydroxy-3,4-dihydro-2H-benzo[e][1,2]oxaborinine-8-carboxylic acid], in assay [1], the “AZT MPC4 CTX-M-14 KP1005” value is “X (key: X = MIC of less than 1 μg/mL; Y = MIC of 1 μg/mL to 10 μg/mL; Z = MIC of greater than 10 μg/mL)”. The Ki – broadly, a dissociation constant, usually derived from enzyme kinetics or from competition with a known ligand – in [2] was above 0.01 µM. For the same compound, the IC50 (as a rule, the concentration needed to halve the response being measured) is 15 to 500 µM in assay [3]; below 15 µM in assay [4]; above 500 µM in [5]; above 500 µM in assay [6]; above 500 µM in assay [8]; above 800 µM in assay [10]. The IC50 in [11] and in [12] was above 800 µM in each case. Also, the “TIG MPC4 CMY-6 EC1010” value in [7] was “X (key: X = MIC of less than 1 μg/mL; Y = MIC of 1 μg/mL to 10 μg/mL; Z = MIC of greater than 10 μg/mL)”. Besides, the “TIG MPC4 CTX-M-15 KP1009” value in assay [9] was “X (X = MIC of less than 1 μg/mL)”. Further, in assay [13], the “AZT MPC4 SHV-5 ec308” value is “X (X = MIC of less than 1 μg/mL)”. Moreover, the “PAM1154/KPC-2 Biapenem MPC64” value in assay [14] is reported as “X (key: X = Less than 10; Y = 10 to 40; Z Greater than 40)”.

With `O=C(CSC(F)F)N[C@H]1Cc2cccc(C(=O)O)c2OB1O` [Compound 3, (R)-3-(2-(difluoromethylthio)acetamido)-2-hydroxy-3,4-dihydro-2H-benzo[e][1,2]oxaborinine-8-carboxylic acid], the “AZT MPC4 CTX-M-14 KP1005” value in [1] is listed as “X (key: X = MIC of less than 1 μg/mL; Y = MIC of 1 μg/mL to 10 μg/mL; Z = MIC of greater than 10 μg/mL)”. Moreover, in assay [2], the Ki was above 0.01 µM. Moreover, the IC50 in [3] is below 15 µM; in assay [4], below 15 µM; in assay [5], above 500 µM; in assay [6], 15 to 500 µM; in assay [8] it was above 500 µM; in [10], above 800 µM. Also, the IC50 in assay [11] was above 800 µM; in [12] it was 300 to 800 µM. For the same compound, the “TIG MPC4 CMY-6 EC1010” value in [7] is recorded as “X (key: X = MIC of less than 1 μg/mL; Y = MIC of 1 μg/mL to 10 μg/mL; Z = MIC of greater than 10 μg/mL)”. Moreover, the “TIG MPC4 CTX-M-15 KP1009” value in assay [9] is “X (X = MIC of less than 1 μg/mL)”. Besides, in assay [13], the “AZT MPC4 SHV-5 ec308” value was “X (X = MIC of less than 1 μg/mL)”. Further, the “PAM1154/KPC-2 Biapenem MPC64” value in assay [14] is recorded as “X (key: X = Less than 10; Y = 10 to 40; Z Greater than 40)”.
